Measurements taken from patent US20240093251A1, “Reactivity of Nitrile Hydratase by Aldehyde” (Mitsubishi Chemical Corporation, priority 2021, published 2024).
Counter-ions that a name gives are not always drawn.

Key:
Type in all cases: biochemical
nitrile hydratase [1] = assay: Test Example 1: effect of compounds on the amide formation reaction with Rhodococcus rhodochrous J-1 bacterial cells; settings: hydrocyanic acid 2.0 ppm in acrylonitrile, 25° C.
Experimental: (§1) Acrylonitrile was prepared so as to have a hydrocyanic acid concentration of 2.0 ppm.
A diluted solution containing an aldehyde compound diluted with a phosphate buffer (pH7.0) so as to obtain a concentration of 5 ppm or 10 ppm in the reaction solution, was added, and finally the phosphate buffer (pH7.0) was added to obtain a total amount of 6.2 g. The obtained solution was stirred while the temperature thereof was controlled at 25° C. To this solution, acrylonitrile (4.8 mL (acrylamide 50% equivalent, 38 wt %)) was added to initiate a reaction. At the time points of 3.5, 4.5, 5.0, and 6.0 hours later, the reaction solution was collected and the concentration of acrylonitrile was measured by gas chromatography (column: PoraPack-PS (manufactured by Waters Corporation), 1 m, 210° C., carrier gas: helium, detector: FID).
(§2) The concentration ratio can be obtained in accordance with the following expression:
(§3) Concentration ratio [%]=(acrylonitrile concentration of the case where aldehyde was added/the case where aldehyde was not added)×100

nitrile hydratase [2] = assay: Amide formation reaction from acrylonitrile with Rhodococcus rhodochrous J-1 bacterial cells, acetaldehyde in acrylonitrile (Examples 1-4); settings: for Concentration ratio (4 hr) (acrylonitrile concentration with aldehyde / without aldehyde x100): 20° C.
Experimental: Rhodococcus rhodochrous J-1 strain (FERMBP-1478) having nitrile hydratase activity was aerobically cultured in a medium (pH7.0) containing glucose (2.0%), urea (1.0%), peptone (0.5%), yeast extract (0.3%) and cobalt chloride (0.05%) at 30° C. The medium was washed with a 50 mM phosphate buffer (pH7.0) to obtain a bacterial suspension (3% on a dry-cell basis).
A cyan 1000-ppm standard solution (manufactured by Hayashi Pure Chemical Ind., Ltd.) was added to acrylonitrile for industrial use (manufactured by Mitsubishi Chemical Corporation) such that the hydrocyanic acid concentration became 2.1 ppm on a weight basis. […]
To a glass case (internal volume: 13.5 ml) with a lid, 3.15 g of a phosphate buffer (pH7.0), and 3.15 g of a diluted bacterial cell solution, which was prepared by diluting bacterial cells as mentioned above with the phosphate buffer (pH7.0) such that initial activity thereof in a reaction solution became 1460 U, were added. The mixture was stirred while controlling the temperature at 20° C. […] Four hours later, the reaction solution was collected and the concentration of acrylonitrile was measured by gas chromatography (column: PoraPack-PS (manufactured by Waters Corporation), 1 m, 210° C., carrier gas: helium, detector: FID).
as §2, §3

[3] = tested on: nitrile hydratase derived from Pseudonocardia thermophila JCM3095 strain; assay: Example 6: amide compound formation reaction by transformant (ATCC12674/pSJ-N02A); settings: propionaldehyde 7 ppm in reaction solution, propionaldehyde/cyan 10.7 mol/mol, hydrocyanic acid 2.0 ppm in acrylonitrile, 25° C.
Experimental: (§4) The transformant (ATCC12674/pSJ-N02A) obtained in the above step was inoculated in MYK medium (50 μg/ml kanamycin) and subjected to shaking culture performed at 30° C. for two days. The cultured transformant (1%) was inoculated in GGPK medium (1.5% glucose, 1% monosodium glutamate, 0.1% yeast extract, 0.05% K2HPO4, 0.05% KH2PO4, 0.05% […], 1% CoCl2, 0.1% urea, 50 μg/ml kanamycin, pH7.2). Shaking culture was carried out at 30° C. for three days and bacterial cells were centrifugally collected. Thereafter, the bacterial cells were washed with a 100 mM phosphate buffer (pH7.0) and a bacterial suspension was prepared.
According to Example 1, the effect of propionaldehyde on amide compound formation reaction by transformant (ATCC12674/pSJ-N02A) was evaluated.
Acrylonitrile was prepared so as to have a hydrocyanic acid concentration of 2.0 ppm. […]

[4] = tested on: nitrile hydratase derived from Rhodococcus rhodochrous M8 strain; assay: Example 5: amide compound formation reaction by M8 strain-derived transformant (ATCC12674/pSJ-N01A); settings: hydrocyanic acid 2.0 ppm in acrylonitrile, 25° C.
Experimental: as §4, with “(ATCC12674/pSJ-N01A)” for “(ATCC12674/pSJ-N02A)”
According to Example 1, the effect of propionaldehyde on amide compound formation reaction by M8 strain-derived transformant (ATCC12674/pSJ-N01A) was evaluated.
as §1
To a glass case (internal volume: 13.5 ml) with a lid, 1.00 g of a diluted bacterial-cell solution, which was prepared by diluting bacterial cells as mentioned above with the phosphate buffer (pH7.0) such that the initial amount of the bacterial cells in a reaction solution became 5.6 mg; and a diluted solution, which was prepared by diluting each aldehyde compound with a phosphate buffer (pH7.0) so as to obtain a concentration thereof of 10 ppm, 25 ppm or 50 ppm in a reaction solution, were added; and finally, a phosphate buffer (pH7.0) was added up to a total amount of 9.0 g. The solution obtained was stirred while the temperature thereof was controlled at 25° C. To this solution, acrylonitrile (1.0 g) was added to initiate a reaction. Six hours later, the reaction solution was collected and the concentration of acrylonitrile was measured by gas chromatography (column: PoraPack-PS (manufactured by Waters Corporation), 1 m, 210° C., carrier gas: helium, detector: FID).
as §2, §3

[5] = 5 ppm addition in reaction solution
[6] = 10 ppm addition in reaction solution

Molecule	Concentration Ratio (3.5 hr) (nitrile hydratase [1]; [5])	Concentration Ratio (6 hr) (nitrile hydratase [1]; [5])	further results
CC=O [No. 2, acetaldehyde]	7.5%	9.2%	Concentration ratio (4 hr) (acrylonitrile concentration with aldehyde / without aldehyde x100) (nitrile hydratase [2]; Example 1: hydrocyanic acid 2.1 ppm, acetaldehyde 10 ppm in acrylonitrile, acetaldehyde/cyan 2.9 mol/mol): 38.8%; Concentration ratio (4 hr) (acrylonitrile concentration with aldehyde / without aldehyde x100) (nitrile hydratase [2]; Example 2: hydrocyanic acid 2.1 ppm, acetaldehyde 6 ppm in acrylonitrile, acetaldehyde/cyan 1.8 mol/mol): 76.1%; Concentration ratio (4 hr) (acrylonitrile concentration with aldehyde / without aldehyde x100) (nitrile hydratase [2]; Example 3: hydrocyanic acid 2.1 ppm, acetaldehyde 3 ppm in acrylonitrile, acetaldehyde/cyan 0.9 mol/mol): 92.5%; Concentration ratio (4 hr) (acrylonitrile concentration with aldehyde / without aldehyde x100) (nitrile hydratase [2]; Example 4: hydrocyanic acid 1.1 ppm, acetaldehyde 10 ppm in acrylonitrile, acetaldehyde/cyan 5.6 mol/mol): 9.8%; rate of a reaction that converts acrylonitrile to an amide compound (nitrile hydratase [2]; compared to Comparative Example without acetaldehyde, hydrocyanic acid 2.1 ppm or 1.1 ppm): high
CCC=O [No. 3, propionaldehyde]	2.2%	1.4%	Concentration Ratio (6 hr) [3]: 33.3%; Concentration Ratio (6 hr) ([4]; propionaldehyde 10 ppm in reaction solution, propionaldehyde/cyan 22.9 mol/mol): 82.7%; Concentration Ratio (6 hr) ([4]; propionaldehyde 25 ppm in reaction solution, propionaldehyde/cyan 57.1 mol/mol): 70.4%; Concentration Ratio (6 hr) ([4]; propionaldehyde 50 ppm in reaction solution, propionaldehyde/cyan 114.3 mol/mol): 60.0%
CCCC=O [No. 4, butyraldehyde]	3.1%	2.7%	
CCCCCC=O [No. 5, hexanal]	83.9%	17.8%	
CCCCCCC=O [No. 6, heptanal]	62.1%	17.6%	
CCCCCCCC=O [No. 7, octanal]	106.4%	117.5%	Concentration Ratio (3.5 hr) (nitrile hydratase [1]; [6]): 72.9%; Concentration Ratio (6 hr) (nitrile hydratase [1]; [6]): 11.6%
CCCCCCCCC=O [No. 8, nonanal]	97.1%	81.4%	Concentration Ratio (3.5 hr) (nitrile hydratase [1]; [6]): 80.1%; Concentration Ratio (6 hr) (nitrile hydratase [1]; [6]): 35.0%
CCCCCCCCCC=O [No. 9, decanal]	96.1%	67.0%	
O=CO [No. 10, formic acid, reference compound]	99.6%	88.9%	Concentration Ratio (3.5 hr) (nitrile hydratase [1]; [6]): 95.1%; Concentration Ratio (6 hr) (nitrile hydratase [1]; [6]): 94.9%
O=CC=O [No. 11, dialdehyde oxalate]	33.4%	12.2%	
OC[C@@H](O)[C@@H](O)CO [No. 12, meso-erythritol, reference compound]	103.3%	118.2%	Concentration Ratio (3.5 hr) (nitrile hydratase [1]; [6]): 97.8%; Concentration Ratio (6 hr) (nitrile hydratase [1]; [6]): 97.3%
O=Cc1ccccc1 [No. 15, benzaldehyde]	92.0%	66.2%	
O=CC=Cc1ccccc1 [No. 16, cinnamaldehyde]	97.0%	102.6%	Concentration Ratio (3.5 hr) (nitrile hydratase [1]; [6]): 99.2%; Concentration Ratio (6 hr) (nitrile hydratase [1]; [6]): 87.1%
C=C(C)C1CC=C(C=O)CC1 (stereo not shown) [No. 17, perillaldehyde]	82.8%	59.6%	
COc1cc(C=O)ccc1O [No. 18, vanillin]	92.9%	71.7%	
CC1NC(C)NC(C)N1 (stereo not shown) [No. 19, acetaldehyde ammonia]	30.0%	3.3%	
C1N2CN3CN1CN(C2)C3 [No. 20, hexamethylenetetramine]	0.3%	2.4%	
paraformaldehyde [No. 14]	1.1%	1.1%	
